Laboratory results from patent US10258602B2 (Ocera Therapeutics, Inc., priority 2007, dated 2019).
Read-outs that look alike come from different tables or passages of the source. Blank lines part the entries; values can stand above or below the compound they belong to.

Legend:
[1] = tested on: human plasma; assay: Plasma protein binding, human plasma (equilibrium dialysis); assay type: in vitro ADME; conditions: test concentration 3 μg/mL
Source text: J. Plasma Protein Binding
The pharmacokinetic and pharmacodynamic properties of drugs are largely a function of the reversible binding of drugs to plasma or serum proteins such as albumin and α1-acid glycoprotein. In general, only unbound drug is available for diffusion or transport across cell membranes, and for interaction at the pharmacological target. On the other hand, drugs with low plasma protein binding generally have large volumes of distribution and rapid clearance since only unbound drug is available for glomerular filtration and, in some cases, hepatic clearance. Thus, the extent of plasma protein binding can influence efficacy, distribution and elimination. The ideal range for plasma protein binding is in the range of 87-98% for most drug products.
Protein binding studies were performed using human plasma. Briefly, 96-well microplates were used to incubate various concentrations of the test article for 60 min at 37° C. Bound and unbound fractions are separated by equilibrium dialysis, where the concentration remaining in the unbound fraction is quantified by LC-MS or LC-MS-MS analysis. […].
The table below presents protein binding data for representative compounds of the present invention in both human and rat plasma.

[2] = biological target: human growth hormone secretagogue receptor (hGHS-R1a) (Homo sapiens, UniProt Q92847); assay: Competitive radioligand binding assay (ghrelin receptor), standard method A
Sequence of human growth hormone secretagogue receptor (hGHS-R1a) (Q92847 whole entry): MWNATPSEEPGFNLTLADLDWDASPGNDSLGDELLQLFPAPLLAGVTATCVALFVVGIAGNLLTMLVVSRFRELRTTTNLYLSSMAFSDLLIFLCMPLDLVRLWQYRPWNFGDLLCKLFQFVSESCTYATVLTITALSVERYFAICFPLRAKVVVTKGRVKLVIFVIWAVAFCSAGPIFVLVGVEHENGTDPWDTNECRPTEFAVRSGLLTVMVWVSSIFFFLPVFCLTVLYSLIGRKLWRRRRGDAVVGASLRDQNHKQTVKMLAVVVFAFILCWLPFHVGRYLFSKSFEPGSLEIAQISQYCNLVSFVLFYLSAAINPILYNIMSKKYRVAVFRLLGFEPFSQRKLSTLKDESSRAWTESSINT
Source text: A competitive binding assay at the human growth hormone secretagogue receptor (hGHS-R1a) can be carried out analogously to assays described in the literature. (Bednarek, M. A.; et al. J. Med. Chem. 2000, 43, 4370-4376; Palucki, B. L.; et al. Bioorg. Med. Chem. Lett. […], 11, 1955-1957.) See also U.S. patent application Ser. Nos. 11/149,512 and 11/149,731. Binding activity at the gherlin receptor for representative compounds of the present invention is shown in the Examples below.

[3] = tested on: fasted rats; assay: Gastric emptying in fasted rat model, standard method E; assay type: in vivo; conditions: average where repeated
Description: E. Gastric Emptying in Fasted Rat Model
To examine the effects of compounds of the invention in a model for gastroparesis, compounds were evaluated for possible effects on gastric emptying in fasted rats. This model is used to determine the potential of compounds of the invention to promote motility in fasted rats.
• 1. Overnight-fasted rats (male, Wistar, 200 g, n=5/group) were given a meal (2 mL) of methylcellulose (2%) by intragastric gavage. The meal was labeled with phenol red (0.05%). • 2. Test articles (dosed at various concentrations, typically 1, 3, 10, 30 mg/kg), vehicle and positive control (metoclopramide, a 5-HT ligand and prokinetic agent currently prescribed for the treatment of GI disorders, including gastroparesis) were administered by oral gavage immediately after the meal (time=0). • 3. […] Total phenol red remaining in the stomach was quantified by a colorimetric method at 560 nm. • 5. A 30% or more increase in gastric emptying (as compared to the vehicle control) was considered significant. • 6. One-way ANOVA, Dunnet's post-hoc statistical test was applied Results
The effects of representative compounds of the invention in the rat gastric emptying model described in standard method E are provided in the following table. In cases where an experiment was conducted multiple times, the average of the individual results is presented.

[4] = Pharmacokinetic analysis (oral bioavailability, elimination half-life) in the rat; assay type: in vivo; conditions: oral administration, 8 mg/kg dose, HPLC-MS
Source text: D. Pharmacokinetic Analysis of Representative Compounds of the Invention
The pharmacokinetic behavior of compound of the invention can be ascertained by methods well known to those skilled in the art. (Wilkinson, G. R. “Pharmacokinetics: The Dynamics of Drug Absorption, Distribution, and Elimination” in Goodman & Gilman's The Pharmacological Basis of Therapeutics, Tenth Edition, Hardman, J. G.; Limbird, L. E., Eds., McGraw Hill, Columbus, Ohio, 2001, Chapter 1.) The following method was used to investigate the pharmacokinetic parameters (elimination half-life, total plasma clearance, etc.) for intravenous, subcutaneous and oral administration of compounds of the present invention. See also U.S. patent application Ser. No. 11/149,512 and Ser. No. 11/149,731 and Intl. Pat. Appl. No. PCT/US2007/017905.
The table below presents oral bioavailability and elimination half-life data in the rat for representative compounds of the present invention. The parameters were determined by HPLC-MS after oral administration of an 8 mg/kg dose of the compound, except for compound 822 where a 2 mg/kg dose was used.

[5] = biological target: GHS-R1a receptor (human ghrelin receptor) (Homo sapiens, UniProt Q92847); assay: Aequorin functional assay (ghrelin receptor), standard method B; assay type: cell-based
Sequence of GHS-R1a receptor (human ghrelin receptor) (Q92847 whole entry): as above
Source text: B. Aequorin Functional Assay (Ghrelin Receptor)
See also U.S. patent application Ser. Nos. 11/149,512 and 11/149,731. (LePoul, E.; et al. J. Biomol. Screen. 2002, 7, 57-65; Bednarek, M. A.; et al. J. Med. Chem. 2000, 43, 4370-4376; Palucki, B. L.; et al. Bioorg. Med. Chem. Lett. 2001, 11, 1955-1957.) Functional activity at the gherlin receptor for representative compounds of the present invention is presented in the Examples.

[6] = tested on: rat plasma; assay: Plasma protein binding, rat plasma; assay type: in vitro ADME; conditions: test concentration 3 μg/mL
[7] = binding activity at the human ghrelin receptor, standard method A
[8] = functional activity at the human ghrelin receptor, standard method B (Aequorin)

Compound: CC1CNC(C2CCCCC2)C(=O)N(C)C(C)C(=O)NC(Cc2ccc(O)cc2)C(=O)NCCCC2CCCCC2O1 (mixture of isomers) [Compound 829]
Human Plasma Protein Binding (%) [1]: 91.6%
Ki [2, 7]: ≤ 0.001 µM
Percent Increase in Gastric Emptying After Oral Administration ([3]; dose 3 mg/kg): 28%
Elimination Half-life (t1/2, rat, min) [4]: 45 min
Oral Bioavailability (rat, % F) [4]: 8 % F

Compound: C[C@@H]1CN[C@@H](C2CC2)C(=O)N(C)[C@H](C)C(=O)N[C@H](Cc2ccc(O)cc2)C(=O)NCCCc2ccccc2O1 [Compound 989]
Ki [2, 7]: ≤ 0.1 µM
Elimination Half-life (t1/2, rat, min) [4]: 138 min
Oral Bioavailability (rat, % F) [4]: 7 % F

Compound: CCN(CC)CCNC(=O)c1cc(Cl)c(N)cc1OC [metoclopramide]
Percent Increase in Gastric Emptying After Oral Administration ([3]; dose 30 mg/kg): 35%

Compound: C[C@@H]1C(=O)N[C@H](Cc2ccc(O)cc2)C(=O)NCCCc2ccc(F)c(F)c2OCCN[C@@H](C2CC2)C(=O)N1C [Compound 818]
Ki [2, 7]: ≤ 0.01 µM
Percent Increase in Gastric Emptying After Oral Administration ([3]; dose 3 mg/kg): 11%

Compound: C[C@@H]1CN[C@@H](C2CCCCC2)C(=O)N(C)[C@H](C)C(=O)N[C@H](Cc2ccc(O)cc2)C(=O)NCCCc2ncccc2O1 [Compound 1062]
EC50 [5, 8]: ≤ 0.05 µM
Ki [2, 7]: ≤ 0.01 µM

Compound: CC1CNC(C2CC2)C(=O)N(C)C(C)C(=O)NC(CC(C)(C)C)C(=O)NCCCc2ccccc2O1 (stereo not drawn) [Compound 1043]
EC50 [5, 8]: ≤ 0.1 µM
Ki [2, 7]: ≤ 0.1 µM

Compound: CC(C)C[C@H]1NC(=O)[C@@H](C)N(C)C(=O)[C@H](C2CC2)NC[C@@H](C)Oc2c(F)cccc2CCCNC1=O [Compound 979]
Ki [2, 7]: ≤ 0.1 µM
Elimination Half-life (t1/2, rat, min) [4]: 34 min
Oral Bioavailability (rat, % F) [4]: 11 % F

Compound: CC1C(=O)NC(Cc2ccc(O)cc2)C(=O)NCCCC2CCCCC2OCCNC(C2CC2)C(=O)N1C (stereo not drawn) [Compound 1118]
Human Plasma Protein Binding (%) [1]: 92.8%
Ki [2, 7]: ≤ 0.01 µM
Rat Plasma Protein Binding (%) [6]: 95.5%

Compound: C[C@@H]1CNC(=O)[C@@H](Cc2ccc(F)cc2)NC(=O)[C@@H](C)N(C)C(=O)[C@H](C2CC2)NC[C@@H](C)Oc2ccccc2C1 [Compound 1033]
EC50 [5, 8]: ≤ 0.1 µM
Ki [2, 7]: ≤ 0.1 µM

Compound: C[C@@H]1CN[C@@H](C2CC2)C(=O)N(C)[C@H](C)C(=O)N[C@H](Cc2ccc(F)cc2)C(=O)NCCCc2ncccc2O1 [Compound 1027]
Ki [2, 7]: ≤ 0.1 µM
Elimination Half-life (t1/2, rat, min) [4]: 46 min
Oral Bioavailability (rat, % F) [4]: 6 % F

Compound: C[C@@H]1CN[C@@H](C2CC2)C(=O)N(C)[C@H](C)C(=O)N[C@H](Cc2cccnc2)C(=O)NCCCc2ccccc2O1 [Compound 975]
EC50 [5, 8]: > 0.4 µM
Ki [2, 7]: ≤ 0.1 µM

Compound: CC(C)[C@@H](O)[C@H]1NC(=O)[C@@H](C)N(C)C(=O)[C@H](C2CC2)NC[C@@H](C)Oc2ccccc2CCCNC1=O [Compound 1058]
EC50 [5, 8]: ≤ 0.1 µM
Ki [2, 7]: ≤ 0.1 µM

Compound: C[C@@H]1CN[C@@H](C2CC2)C(=O)N(C)[C@H](C)C(=O)N[C@H](Cc2ccc(Cl)cc2)C(=O)NCCCc2ccc(F)cc2O1 [Compound 877]
EC50 [5]: ≤ 0.05 µM
Ki [2]: ≤ 0.1 µM
Oral Bioavailability (rat, % F) [4]: 15 % F
half-life ([4]; plasma, read-out: Elimination Half-life (t1/2, rat, min)): 255 min

Compound: CC(C)C[C@H]1NC(=O)[C@@H](C)N(C)C(=O)[C@H](C2CC2)NC[C@@H](C)Oc2cccnc2CCCNC1=O [Compound 999]
Elimination Half-life (t1/2, rat, min) [4]: 122 min
Oral Bioavailability (rat, % F) [4]: 9 % F

Compound: C[C@@H]1CN[C@@H](C2CC2)C(=O)N(C)[C@H](C)C(=O)N[C@H](Cc2ccc(F)cc2)C(=O)NCCCc2cccc(F)c2O1 [Compound 935]
Ki [2, 7]: ≤ 0.1 µM
Elimination Half-life (t1/2, rat, min) [4]: 42 min
Oral Bioavailability (rat, % F) [4]: 11 % F

Further lines, with some results ahead:

Ki [2, 7]: ≤ 0.1 µM
Elimination Half-life (t1/2, rat, min) [4]: 223 min
Oral Bioavailability (rat, % F) [4]: 22 % F
Compound: C[C@@H]1CN[C@@H](C2CC2)C(=O)N(C)[C@H](C)C(=O)N[C@H](Cc2ccc(F)cc2)C(=O)NCCCc2ccc(F)cc2O1 [Compound 854]

Ki [2, 7]: ≤ 0.01 µM
Elimination Half-life (t1/2, rat, min) [4]: 268 min
Oral Bioavailability (rat, % F) [4]: 22 % F
Compound: C[C@@H]1CN[C@@H](C2CC2)C(=O)N(C)[C@H](C)C(=O)N[C@H](Cc2ccc(F)cc2)C(=O)N[C@@H](C)CCc2ccccc2O1 [Compound 1011]

Ki [2, 7]: ≤ 0.1 µM
Elimination Half-life (t1/2, rat, min) [4]: 128 min
Oral Bioavailability (rat, % F) [4]: 32 % F
Compound: C[C@@H]1CN[C@@H](C2CC2)C(=O)N(C)[C@H](C)C(=O)N[C@H](Cc2ccc(O)cc2)C(=O)N(C)CCCc2ccccc2O1 [Compound 1069]

EC50 [5, 8]: ≤ 0.4 µM
Ki [2, 7]: ≤ 0.1 µM
Compound: CC[C@H](C)[C@@H]1NC[C@@H](C)Oc2ccccc2CCCNC(=O)[C@@H](Cc2cccnc2)NC(=O)[C@@H](C)N(C)C1=O [Compound 976]

EC50 [5, 8]: ≤ 0.1 µM
Ki [2, 7]: ≤ 0.1 µM
Elimination Half-life (t1/2, rat, min) [4]: 23 min
Oral Bioavailability (rat, % F) [4]: 4 % F
Compound: CC(C)C[C@H]1NC(=O)[C@@H](C)N(C)C(=O)[C@H](C2CCCCC2)NC[C@@H](C)Oc2cccnc2CCCNC1=O [Compound 1061]

EC50 [5, 8]: ≤ 0.4 µM
Ki [2, 7]: ≤ 0.1 µM
Elimination Half-life (t1/2, rat, min) [4]: 103 min
Oral Bioavailability (rat, % F) [4]: 26 % F
Compound: CC(C)C[C@H]1NC(=O)[C@@H](C)N(C)C(=O)[C@H](C2CC2)NC[C@@H](C)Oc2ccccc2CCCNC1=O [Compound 968]

EC50 [5, 8]: ≤ 0.4 µM
Ki [2, 7]: ≤ 0.1 µM
Compound: C[C@@H]1CN[C@@H](C2CC2)C(=O)N(C)[C@H](C)C(=O)N[C@H]([C@H](C)c2ccc(F)cc2)C(=O)NCCCc2ccccc2O1 [Compound 1018]

Ki [2, 7]: ≤ 0.01 µM
Elimination Half-life (t1/2, rat, min) [4]: 77 min
Oral Bioavailability (rat, % F) [4]: 22 % F
Compound: C[C@@H]1CN[C@@H](C2CC2)C(=O)N(C)[C@H](C)C(=O)N[C@H](Cc2ccc(Cl)cc2)C(=O)NCCCc2ccccc2O1 [Compound 862]

Ki [2, 7]: ≤ 0.01 µM
Elimination Half-life (t1/2, rat, min) [4]: 31 min
Oral Bioavailability (rat, % F) [4]: 4 % F
Compound: CC(C)C[C@H]1NC(=O)[C@@H](C)N(C)C(=O)[C@H](C2CC2)NCCOc2c(F)cccc2CCCNC1=O [Compound 813]
Percent Increase in Gastric Emptying After Oral Administration ([3]; dose 3 mg/kg): 11%

EC50 [5, 8]: ≤ 0.05 µM
Ki [2, 7]: ≤ 0.001 µM
Compound: C[C@@H]1CN[C@@H](C2CCCCC2)C(=O)N(C)[C@H](C)C(=O)N[C@H](Cc2ccc(F)cc2)C(=O)NCCCc2ccccc2O1 [Compound 982]

EC50 [5, 8]: ≤ 0.05 µM
Ki [2, 7]: ≤ 0.001 µM
Compound: C[C@@H]1C(=O)N[C@H](Cc2ccc(F)cc2)C(=O)NCCCc2cccc3c2O[C@H](CC3)CN[C@@H](C2CC2)C(=O)N1C [Compound 1009]

Ki [2, 7]: ≤ 0.001 µM
Elimination Half-life (t1/2, rat, min) [4]: 120 min
Oral Bioavailability (rat, % F) [4]: 15 % F
Compound: CC1CNC(C2CC2)C(=O)N(C)C(C)C(=O)NC(CC2CCCCC2)C(=O)NCCCC2CCCCC2O1 (mixture of isomers) [Compound 831]
Percent Increase in Gastric Emptying After Oral Administration ([3]; dose 3 mg/kg): 32%
